Data reported in the kinase profiling compilation of Christmann-Franck et al. (2016).
Where “and” joins values, the source holds several entries; their conditions need not be identical. Equal entries are not always repeated.

Columns and labels:
Test in all cases: radiometric filter-binding kinase assay, Kinase HotSpot
Conditions in all cases: compound 0.5 µM; ATP 10 µM
[1] = target: TSSK2 (human) (UniProt Q96PF2)
[2] = target: MARK1 (human) (UniProt Q9P0L2)
[3] = target: PRKCE (human) (UniProt Q02156)
[4] = target: STK10 (human) (UniProt O94804)
[5] = target: CDK9 CCNT1 (human) (UniProt P50750+O60563)
[6] = target: NTRK3 (human) (UniProt Q16288)
[7] = target: NEK4 (human) (UniProt P51957)
[8] = target: NEK7 (human) (UniProt Q8TDX7)
[9] = target: STK11 (human) (UniProt Q15831)
[10] = target: EGFR (human) (UniProt P00533)
[11] = target: IKBKE (human) (UniProt Q14164)
[12] = target: PHKG1 (human) (UniProt Q16816)
[13] = target: GRK6 (human) (UniProt P43250)
[14] = target: CDK2 CCNE1 (human) (UniProt P24941+P24864)
[15] = target: MAP3K14 (human) (UniProt Q99558)
[16] = target: HIPK4 (human) (UniProt Q8NE63)
[17] = target: MET (human) (UniProt P08581)
[18] = target: CAMK2B (human) (UniProt Q13554)
[19] = target: ADRBK1 (human) (UniProt P25098)
[20] = target: CDK4 CCND3 (human) (UniProt P30281+P11802)
[21] = target: ACVR1 (human) (UniProt Q04771)
[22] = target: CDK1 CCNA2 (human) (UniProt P06493+P20248)
[23] = target: EPHA7 (human) (UniProt Q15375)
[24] = target: LIMK1 (human) (UniProt P53667)
[25] = target: CAMKK2 (human) (UniProt Q96RR4)
[26] = target: MST1R (human) (UniProt Q04912)
[27] = target: CAMK1D (human) (UniProt Q8IU85)
[28] = target: CDK4 CCND1 (human) (UniProt P24385+P11802)
[29] = target: ABL2 (human) (UniProt P42684)
[30] = target: TGFBR1 (human) (UniProt P36897)
[31] = target: CAMK1 (human) (UniProt Q14012)
[32] = target: AKT3 (human) (UniProt Q9Y243)
[33] = target: STK39 (human) (UniProt Q9UEW8)
[34] = target: PTK2 (human) (UniProt Q05397)
[35] = target: MLTK (human) (UniProt Q9NYL2)
[36] = target: PRKCB2 (human) (UniProt P05771)
[37] = target: MAP4K5 (human) (UniProt Q9Y4K4)
[38] = target: PRKG1 (human) (UniProt Q13976)
[39] = target: GRK7 (human) (UniProt Q8WTQ7)
[40] = target: PRKD1 (human) (UniProt Q15139)
[41] = target: CLK2 (human) (UniProt P49760)
[42] = target: CSNK1G3 (human) (UniProt Q9Y6M4)

Sequence of PRKCB2 (human) (P05771 whole entry, looked up): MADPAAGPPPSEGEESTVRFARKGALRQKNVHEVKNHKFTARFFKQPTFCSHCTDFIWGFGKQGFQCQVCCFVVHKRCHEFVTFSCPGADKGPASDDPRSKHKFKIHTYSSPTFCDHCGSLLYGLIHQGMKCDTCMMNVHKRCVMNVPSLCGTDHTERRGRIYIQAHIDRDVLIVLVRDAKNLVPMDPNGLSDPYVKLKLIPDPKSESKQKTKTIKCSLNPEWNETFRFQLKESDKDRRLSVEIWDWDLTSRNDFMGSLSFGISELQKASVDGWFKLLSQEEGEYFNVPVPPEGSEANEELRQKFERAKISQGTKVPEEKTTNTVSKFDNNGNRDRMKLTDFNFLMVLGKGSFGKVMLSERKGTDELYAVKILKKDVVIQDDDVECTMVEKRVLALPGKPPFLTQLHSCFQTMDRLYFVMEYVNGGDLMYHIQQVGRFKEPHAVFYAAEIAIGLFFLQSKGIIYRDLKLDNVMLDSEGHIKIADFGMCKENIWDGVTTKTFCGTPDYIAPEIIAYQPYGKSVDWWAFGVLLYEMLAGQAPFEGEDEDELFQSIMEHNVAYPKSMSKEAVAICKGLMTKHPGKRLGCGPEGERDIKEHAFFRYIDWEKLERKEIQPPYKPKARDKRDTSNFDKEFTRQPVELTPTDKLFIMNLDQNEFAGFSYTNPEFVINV
Sequence of STK11 (human) (Q15831 whole entry, looked up): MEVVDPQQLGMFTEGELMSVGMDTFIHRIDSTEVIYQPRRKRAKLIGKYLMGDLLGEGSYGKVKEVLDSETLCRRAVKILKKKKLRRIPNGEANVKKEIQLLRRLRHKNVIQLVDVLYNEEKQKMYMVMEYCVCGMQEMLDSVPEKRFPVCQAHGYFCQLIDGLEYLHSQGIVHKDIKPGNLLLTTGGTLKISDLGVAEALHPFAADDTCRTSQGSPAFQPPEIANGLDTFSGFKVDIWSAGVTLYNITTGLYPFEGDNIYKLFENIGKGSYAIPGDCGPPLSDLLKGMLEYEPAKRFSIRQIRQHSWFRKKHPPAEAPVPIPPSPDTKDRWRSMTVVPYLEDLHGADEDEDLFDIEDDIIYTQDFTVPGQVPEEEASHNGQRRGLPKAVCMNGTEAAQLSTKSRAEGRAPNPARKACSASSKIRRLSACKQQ
Sequence of PRKD1 (human) (Q15139 whole entry, looked up): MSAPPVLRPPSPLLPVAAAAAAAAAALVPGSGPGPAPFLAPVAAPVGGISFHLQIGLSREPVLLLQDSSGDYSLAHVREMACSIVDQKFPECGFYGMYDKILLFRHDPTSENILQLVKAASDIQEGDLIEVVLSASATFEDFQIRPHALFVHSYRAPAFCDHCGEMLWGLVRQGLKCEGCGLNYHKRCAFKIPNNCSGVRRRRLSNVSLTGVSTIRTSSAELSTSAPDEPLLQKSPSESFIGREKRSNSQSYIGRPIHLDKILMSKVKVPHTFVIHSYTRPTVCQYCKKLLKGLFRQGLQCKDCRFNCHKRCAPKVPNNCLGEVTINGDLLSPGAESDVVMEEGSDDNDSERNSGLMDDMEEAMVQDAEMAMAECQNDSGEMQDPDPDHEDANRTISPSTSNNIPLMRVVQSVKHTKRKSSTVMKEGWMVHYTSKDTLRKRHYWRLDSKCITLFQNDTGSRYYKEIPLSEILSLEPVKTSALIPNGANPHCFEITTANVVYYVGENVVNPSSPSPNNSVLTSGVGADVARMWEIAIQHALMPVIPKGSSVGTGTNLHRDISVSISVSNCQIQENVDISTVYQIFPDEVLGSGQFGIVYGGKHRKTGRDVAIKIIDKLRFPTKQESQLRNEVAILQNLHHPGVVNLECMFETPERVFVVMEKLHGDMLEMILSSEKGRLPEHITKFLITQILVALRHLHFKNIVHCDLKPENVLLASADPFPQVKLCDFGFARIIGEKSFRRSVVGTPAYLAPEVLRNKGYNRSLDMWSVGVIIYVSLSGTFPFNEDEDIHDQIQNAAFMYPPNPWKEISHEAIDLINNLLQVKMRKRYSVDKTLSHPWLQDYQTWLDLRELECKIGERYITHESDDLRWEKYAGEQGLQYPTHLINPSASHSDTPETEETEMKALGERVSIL
Sequence of CAMK1D (human) (Q8IU85 whole entry, looked up): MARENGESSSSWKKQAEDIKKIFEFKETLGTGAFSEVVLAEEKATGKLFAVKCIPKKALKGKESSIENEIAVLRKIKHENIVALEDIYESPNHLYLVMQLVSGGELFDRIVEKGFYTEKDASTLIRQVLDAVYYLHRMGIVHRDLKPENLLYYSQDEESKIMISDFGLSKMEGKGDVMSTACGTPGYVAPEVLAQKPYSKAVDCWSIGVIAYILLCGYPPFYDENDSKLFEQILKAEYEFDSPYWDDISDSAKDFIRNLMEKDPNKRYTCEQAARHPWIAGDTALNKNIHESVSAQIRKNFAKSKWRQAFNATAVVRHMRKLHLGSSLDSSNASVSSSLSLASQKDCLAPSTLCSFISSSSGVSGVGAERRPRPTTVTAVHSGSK
Sequence of CDK1 CCNA2 (human) (P06493 whole entry, looked up): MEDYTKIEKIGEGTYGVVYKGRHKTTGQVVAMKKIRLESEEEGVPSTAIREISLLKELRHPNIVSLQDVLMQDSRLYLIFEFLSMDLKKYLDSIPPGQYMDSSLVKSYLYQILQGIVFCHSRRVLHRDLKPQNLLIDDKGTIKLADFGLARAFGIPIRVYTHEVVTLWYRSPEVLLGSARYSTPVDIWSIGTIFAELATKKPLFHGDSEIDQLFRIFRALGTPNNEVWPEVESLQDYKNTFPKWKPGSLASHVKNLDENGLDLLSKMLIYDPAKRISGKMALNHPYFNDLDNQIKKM
Sequence of CDK1 CCNA2 (human) (P20248 whole entry, looked up): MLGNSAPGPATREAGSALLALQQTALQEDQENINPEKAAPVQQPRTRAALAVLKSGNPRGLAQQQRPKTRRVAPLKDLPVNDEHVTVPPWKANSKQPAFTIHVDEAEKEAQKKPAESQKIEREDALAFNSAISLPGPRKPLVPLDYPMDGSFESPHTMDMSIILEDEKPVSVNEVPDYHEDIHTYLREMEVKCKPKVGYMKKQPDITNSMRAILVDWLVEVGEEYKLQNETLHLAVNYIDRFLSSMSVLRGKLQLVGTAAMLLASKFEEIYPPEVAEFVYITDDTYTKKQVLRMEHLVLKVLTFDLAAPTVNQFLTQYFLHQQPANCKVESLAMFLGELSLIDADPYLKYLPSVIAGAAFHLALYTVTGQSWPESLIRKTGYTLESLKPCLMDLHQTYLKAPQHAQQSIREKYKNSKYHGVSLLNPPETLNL
Sequence of IKBKE (human) (Q14164 whole entry, looked up): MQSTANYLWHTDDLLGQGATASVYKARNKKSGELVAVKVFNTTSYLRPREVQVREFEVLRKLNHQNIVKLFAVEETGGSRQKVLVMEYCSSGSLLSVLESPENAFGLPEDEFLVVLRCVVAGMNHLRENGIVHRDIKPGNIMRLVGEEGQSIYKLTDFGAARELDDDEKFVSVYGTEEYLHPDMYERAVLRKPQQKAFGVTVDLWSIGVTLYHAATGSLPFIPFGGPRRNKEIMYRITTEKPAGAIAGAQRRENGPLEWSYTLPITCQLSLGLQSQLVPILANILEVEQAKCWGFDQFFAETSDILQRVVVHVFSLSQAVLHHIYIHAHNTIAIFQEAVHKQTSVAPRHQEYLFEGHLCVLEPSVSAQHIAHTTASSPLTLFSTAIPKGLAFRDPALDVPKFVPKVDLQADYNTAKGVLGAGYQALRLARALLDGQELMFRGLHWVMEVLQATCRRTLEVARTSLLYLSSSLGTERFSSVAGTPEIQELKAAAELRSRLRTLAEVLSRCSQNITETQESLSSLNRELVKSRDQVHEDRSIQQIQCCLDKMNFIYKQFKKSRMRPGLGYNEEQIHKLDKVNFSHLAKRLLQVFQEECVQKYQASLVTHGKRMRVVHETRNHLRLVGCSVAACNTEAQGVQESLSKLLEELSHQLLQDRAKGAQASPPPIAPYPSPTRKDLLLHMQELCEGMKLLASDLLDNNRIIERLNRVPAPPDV
Sequence of PHKG1 (human) (Q16816 whole entry, looked up): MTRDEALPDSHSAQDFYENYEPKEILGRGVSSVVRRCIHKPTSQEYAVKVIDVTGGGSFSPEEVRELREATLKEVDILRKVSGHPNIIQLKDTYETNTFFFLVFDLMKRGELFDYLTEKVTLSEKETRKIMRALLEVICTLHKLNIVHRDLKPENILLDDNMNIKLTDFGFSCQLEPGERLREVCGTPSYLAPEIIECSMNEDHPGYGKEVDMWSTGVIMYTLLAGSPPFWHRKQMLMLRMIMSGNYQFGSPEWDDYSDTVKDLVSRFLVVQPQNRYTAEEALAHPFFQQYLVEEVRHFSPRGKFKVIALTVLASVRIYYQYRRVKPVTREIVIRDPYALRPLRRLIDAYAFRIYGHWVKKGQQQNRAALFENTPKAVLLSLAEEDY
Sequence of GRK6 (human) (P43250 whole entry, looked up): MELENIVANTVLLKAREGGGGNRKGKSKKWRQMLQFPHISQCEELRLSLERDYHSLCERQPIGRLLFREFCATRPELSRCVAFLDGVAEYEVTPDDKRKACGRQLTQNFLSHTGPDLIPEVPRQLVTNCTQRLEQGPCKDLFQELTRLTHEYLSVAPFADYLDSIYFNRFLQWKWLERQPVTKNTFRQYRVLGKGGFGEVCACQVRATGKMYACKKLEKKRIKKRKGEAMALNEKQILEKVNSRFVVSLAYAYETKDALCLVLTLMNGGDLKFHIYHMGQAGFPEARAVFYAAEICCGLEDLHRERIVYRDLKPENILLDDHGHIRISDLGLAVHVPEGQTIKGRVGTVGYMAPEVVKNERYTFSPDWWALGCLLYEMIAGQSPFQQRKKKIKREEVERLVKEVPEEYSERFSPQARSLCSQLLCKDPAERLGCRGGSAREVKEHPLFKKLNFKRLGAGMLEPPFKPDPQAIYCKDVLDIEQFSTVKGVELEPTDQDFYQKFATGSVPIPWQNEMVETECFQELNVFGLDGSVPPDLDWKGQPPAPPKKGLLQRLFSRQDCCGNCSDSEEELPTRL

Cn1nc2c3c(cccc31)C(=O)c1ccccc1-2
residual activity [1]: 95.4%
residual activity [2]: 95.7%
residual activity [3]: 95.7%
residual activity [4]: 94.5%
residual activity [5]: 94.7%
residual activity [6]: 71.6%
residual activity [7]: 89.8%
residual activity [8]: 93.1%
residual activity [9]: 87.7%
residual activity [10]: 105%
residual activity [11]: 92.3%
residual activity [12]: 86.4%
residual activity [13]: 89.2%
residual activity [14]: 89.4%
residual activity [15]: 107%
residual activity [16]: 102%
residual activity [17]: 107%
residual activity [18]: 95.3%
residual activity [19]: 103%
residual activity [20]: 92.4%
residual activity [21]: 110%
residual activity [22]: 88%
residual activity [23]: 104%
residual activity [24]: 97.1%
residual activity [25]: 74.9%
residual activity [26]: 96.7%
residual activity [27]: 70.3%
residual activity [28]: 98.9%
residual activity [29]: 97.8%
residual activity [30]: 93.7%
residual activity [31]: 104%
residual activity [32]: 102%
residual activity [33]: 101%
residual activity [34]: 92.8%
residual activity [35]: 83.1%
residual activity [36]: 97.8%
residual activity [37]: 86%
residual activity [38]: 93.7% and 96%
residual activity [39]: 113%
residual activity [40]: 69.3%
residual activity [41]: 94.5%
residual activity [42]: 81.4%

CCN(CC)CCCCN1c2ccccc2Oc2ccc(Cl)cc21
residual activity [1]: 103%
residual activity [2]: 100%
residual activity [3]: 109%
residual activity [4]: 97.1%
residual activity [5]: 101%
residual activity [6]: 103%
residual activity [7]: 110%
residual activity [8]: 89.7%
residual activity [9]: 94.4%
residual activity [10]: 99.2%
residual activity [11]: 102%
residual activity [12]: 96.5%
residual activity [13]: 88.4%
residual activity [14]: 89.4%
residual activity [15]: 95.6%
residual activity [16]: 99.2%
residual activity [17]: 105%
residual activity [18]: 107%
residual activity [19]: 96.5%
residual activity [20]: 102%
residual activity [21]: 101%
residual activity [22]: 99.3%
residual activity [23]: 102%
residual activity [24]: 94.3%
residual activity [25]: 105%
residual activity [26]: 112%
residual activity [27]: 107%
residual activity [28]: 107%
residual activity [29]: 101%
residual activity [30]: 97.2%
residual activity [31]: 101%
residual activity [32]: 103%
residual activity [33]: 83.5%
residual activity [34]: 108%
residual activity [35]: 94.4%
residual activity [36]: 102%
residual activity [37]: 93.4%
residual activity [38]: 91.3% and 98.8%
residual activity [39]: 96.2%
residual activity [40]: 101%
residual activity [41]: 105%
residual activity [42]: 78.3%

COc1cc2ncnc(N3CCN(C(=O)Nc4ccc(Oc5ccccc5)cc4)CC3)c2cc1OC
residual activity [1]: 79.1%
residual activity [2]: 99.1%
residual activity [3]: 106%
residual activity [4]: 97.9%
residual activity [5]: 97.3%
residual activity [6]: 89%
residual activity [7]: 94.4%
residual activity [8]: 105%
residual activity [9]: 105%
residual activity [10]: 79.1%
residual activity [11]: 98.9%
residual activity [12]: 89.5%
residual activity [13]: 96.4%
residual activity [14]: 92.1%
residual activity [15]: 105%
residual activity [16]: 75.4%
residual activity [17]: 107%
residual activity [18]: 96.3%
residual activity [19]: 96.7%
residual activity [20]: 90.3%
residual activity [21]: 100%
residual activity [22]: 92.3%
residual activity [23]: 96.8%
residual activity [24]: 69.8%
residual activity [25]: 81.6%
residual activity [26]: 90.3%
residual activity [27]: 104%
residual activity [28]: 101%
residual activity [29]: 92.9%
residual activity [30]: 99.5%
residual activity [31]: 96.9%
residual activity [32]: 97.5%
residual activity [33]: 83.2%
residual activity [34]: 89.4%
residual activity [35]: 96.2%
residual activity [36]: 102%
residual activity [37]: 81.6%
residual activity [38]: 85.6% and 98.7%
residual activity [39]: 95.7%
residual activity [40]: 102%
residual activity [41]: 81.3%
residual activity [42]: 82.7%
